Patent publication US9408906B2, “Peptide particle formulation” (FLOW PHARMA, INC., priority 2010, dated 2016)

System: Mature dendrocytes mixed with T-Lymphocytes
Experiment: Antigen presentation and T cell stimulation: production of human γ-IFN measured by ELISA
Assay type: cell-based
Conditions: human γ-IFN production after 2 hours incubation; HLA-A02 CMV-exposed donor PBMC-derived dendrocytes + T-lymphocytes; free peptide at 10^−9 M or 15 micron PLGA microspheres with approximately 2% NLVPMVATV
From the text: Preparation of Dendritic Cells from peripheral blood mononuclear cells (PBMC). Frozen PBMC cells were obtained from Cellular Technology Limited, from volunteer donors known to have been exposed to CMV, and to be HLA-A02. The volunteer's antigen presenting cells were known to be capable of presenting HCMV pp 65 (NLVPMVATV) CMV epitope to T lymphocytes. Human PBMC (Peripheral Blood Mononuclear Cells) isolated from leukopacks and frozen in serum-free CTL-Cryo™ medium. These leukopacks were ethically collected from healthy donors tested for: HBsAg, HBcAb, HCV, HTLV I/II, and STS by serology; as well as HIV I, HCV, and WNV by NAT.
Cells were thawed and plated at a concentration of 1×10^5 monocytes/well of a 24-well plate in medium supplemented with GM-CSF at a final concentration of 50 ng/ml and IL-4 at a final concentration of 100 ng/ml. Cells were maintained in culture at 37° C./5% CO2 for 6 days; and used with 8 days after that point. Optical microscopy confirmed maturation of monocytes to dendrocytes capable of phagocytosis of 15 micron PLGA microspheres.
Presentation of antigen and stimulation of T cells was assessed by production of human γ-IFN, measured by ELISA. […] Production of γ-IFN was measured after 2 hours.

## NLVPMVATV [free peptide]
  ELISA Optical Density: 0.612
